Earlier results as cited in patent US10960082B2, “Tridentate connexon and use thereof” (NEWBIO THERAPEUTICS, INC., priority 2013, dated 2021).

System: human carcinoma lines

- IC50: 0.1 to 0.2 µM
SMILES: COc1cccc2c1C(=O)c1c(O)c3c(c(O)c1C2=O)C[C@@](O)(C(=O)CO)C[C@@H]3O[C@H]1C[C@H](N)[C@H](O)[C@H](C)O1 [doxorubicin]
